Earlier results, collected in PMC3667888 (Channels, 2013).

Test system: Kv1 channels
Conditions: applied externally; cited from earlier work

**Q.** Which “inhibition of Kv1 channels by anandamide” value does the source give for `CCCCC/C=C\C/C=C\C/C=C\C/C=C\CCCC(=O)NCCO` [AEA, anandamide] here?
**A.** not inhibited
